Experimental data: ChEMBL document CHEMBL5331108, “Design and Synthesis of 4-Fluorophenyl-5-methylene-2(5H)-furanone Derivatives as Potent Quorum Sensing Inhibitors” (J Med Chem, 2023)
Converted amounts (≈) assume the structure as drawn.

How the values were obtained:
Type in all cases: functional
Pseudomonas aeruginosa [1] = test: Antibacterial activity against wild type Pseudomonas aeruginosa […] CGMCC1.12483 assessed as inhibition of bacterial growth incubated for 20 hrs by CLSI protocol based microdilution method
Bacillus subtilis = test: Antibacterial activity against penicillin-susceptible Bacillus subtilis ATCC9372 assessed as inhibition of bacterial growth incubated for 20 hrs by CLSI protocol based microdilution method
Staphylococcus aureus [2] = test: Antibacterial activity against erthromycin-susceptible Staphylococcus aureus ATCC25923 assessed as inhibition of bacterial growth incubated for 20 hrs by CLSI protocol based microdilution method
Escherichia coli = test: Antibacterial activity against penicillin-susceptible Escherichia coli ATCC25922 assessed as inhibition of bacterial growth incubated for 20 hrs by CLSI protocol based microdilution method
Staphylococcus aureus [3] = test: Antibacterial activity against methicillin-resistant Staphylococcus aureus ATCC43300 assessed as inhibition of bacterial growth incubated for 20 hrs by CLSI protocol based microdilution method
Bacillus pumilus = test: Antibacterial activity against penicillin-susceptible Bacillus pumilus CMCC63202 assessed as inhibition of bacterial growth incubated for 20 hrs by CLSI protocol based microdilution method
Pseudomonas aeruginosa [4] = test: Antibacterial activity against penicillin-susceptible Pseudomonas aeruginosa ATCC27853 assessed as inhibition of bacterial growth incubated for 20 hrs by CLSI protocol based microdilution method

Row | Structure (SMILES) | MIC (Pseudomonas aeruginosa [1]) [µg/mL] | MIC (Bacillus subtilis) [µg/mL] | MIC (Staphylococcus aureus [2]) [µg/mL] | MIC (Escherichia coli) [µg/mL] | MIC (Staphylococcus aureus [3]) [µg/mL] | MIC (Bacillus pumilus) [µg/mL] | MIC (Pseudomonas aeruginosa [4]) [µg/mL]
1 | C=C1OC(=O)C(CNC(=O)c2ccc(C)cc2)=C1c1ccccc1F | > 512 | > 512 | > 512 | > 512 | > 512 | > 512 | > 512
2 | C=C1OC(=O)C(CNC(=O)CCCCCCC)=C1c1ccc(F)cc1 | > 512 | > 512 | > 512 | > 512 | > 512 | > 512 | > 512
3 | C=C1C(c2ccc(F)cc2)=C(CNC(=O)c2ccc(C)cc2)C(=O)N1CC | 512 (≈ 1400 µM) | > 512 | > 512 | > 512 | > 512 | 512 (≈ 1400 µM) | 64 (≈ 176 µM)
4 | C=C1OC(=O)C(CNC(=O)c2ccccc2OC)=C1c1ccc(F)cc1 | > 512 | > 512 | > 512 | > 512 | > 512 | > 512 | > 512
5 | C=C1OC(=O)C(CNC(=O)c2ccc(C)cc2)=C1c1ccccc1 | > 512 | > 512 | > 512 | > 512 | > 512 | > 512 | > 512
6 | C=C1C(c2ccc(F)cc2)=C(CNC(=O)c2ccc(C)cc2)C(=O)N1c1cccc(Cl)c1 | 512 (≈ 1150 µM) | > 512 | > 512 | > 512 | > 512 | 512 (≈ 1150 µM) | > 512
7 | C=C1OC(=O)C(CNC(=O)c2ccc(C)cc2)=C1c1ccccc1Br | > 512 | > 512 | > 512 | > 512 | > 512 | > 512 | > 512
8 | C=C1OC(=O)C(CNC(=O)CCCCC)=C1c1ccc(F)cc1 | > 512 | 256 (≈ 807 µM) | 16 (≈ 50.4 µM) | > 512 | 256 (≈ 807 µM) | 256 (≈ 807 µM) | > 512
9 | C=C1OC(=O)C(CNC(=O)CCCCCCCC)=C1c1ccc(F)cc1 | > 512 | > 512 | > 512 | > 512 | > 512 | > 512 | > 512
10 | C=C1OC(=O)C(CNC(=O)c2ccccc2F)=C1c1ccc(F)cc1 | > 512 | > 512 | > 512 | > 512 | 128 (≈ 375 µM) | > 512 | > 512
11 | C=C1OC(=O)C(CNC(=O)c2cccc(Br)c2)=C1c1ccc(F)cc1 | > 512 | > 512 | > 512 | > 512 | > 512 | > 512 | > 512
12 | C=C1OC(=O)C(CNC(=O)c2cccc(F)c2)=C1c1ccc(F)cc1 | > 512 | > 512 | > 512 | > 512 | > 512 | > 512 | > 512
13 | C=C1OC(=O)C(CNC(=O)CC)=C1c1ccc(F)cc1 | 512 (≈ 1860 µM) | 512 (≈ 1860 µM) | 128 (≈ 465 µM) | > 512 | 256 (≈ 930 µM) | 256 (≈ 930 µM) | > 512
14 | C=C1OC(=O)C(CNC(=O)CCCC)=C1c1ccc(F)cc1 | > 512 | 32 (≈ 105 µM) | 4 (≈ 13.2 µM) | > 512 | 32 (≈ 105 µM) | 16 (≈ 52.7 µM) | > 512
15 | C=C1C(c2ccc(F)cc2)=C(CNC(=O)c2ccc(C)cc2)C(=O)N1CCCC | > 512 | > 512 | > 512 | > 512 | > 512 | > 512 | > 512
16 | C=C1OC(=O)C(CNC(=O)c2ccc(C)cc2)=C1c1cccc(Br)c1 | > 512 | > 512 | > 512 | > 512 | > 512 | > 512 | > 512
17 | C=C1OC(=O)C(CNC(=O)c2ccc(C)cc2)=C1c1ccc(Br)cc1 | > 512 | > 512 | > 512 | > 512 | > 512 | > 512 | > 512
18 | C=C1OC(=O)C(CNC(=O)CCCCCCCCC)=C1c1ccc(F)cc1 | > 512 | > 512 | > 512 | > 512 | 512 (≈ 1370 µM) | > 512 | > 512
19 | C=C1C(c2ccc(F)cc2)=C(CNC(=O)c2ccc(C)cc2)C(=O)N1c1ccccc1Cl | 512 (≈ 1150 µM) | > 512 | > 512 | > 512 | > 512 | 512 (≈ 1150 µM) | > 512
20 | C=C1OC(=O)C(CNC(=O)c2ccccc2C)=C1c1ccc(F)cc1 | > 512 | 128 (≈ 379 µM) | 32 (≈ 94.9 µM) | > 512 | 64 (≈ 190 µM) | 32 (≈ 94.9 µM) | > 512
21 | C=C1OC(=O)C(CNC(=O)c2ccccc2Br)=C1c1ccc(F)cc1 | > 512 | 16 (≈ 39.8 µM) | > 512 | > 512 | 8 (≈ 19.9 µM) | > 512 | > 512
22 | C=C1OC(=O)C(CNC(=O)c2ccc(C)cc2)=C1c1ccc(Cl)cc1 | > 512 | > 512 | > 512 | > 512 | > 512 | > 512 | > 512
23 | C=C1OC(=O)C(CNC(=O)c2ccc(C)cc2)=C1c1ccc(-c2ccccc2)cc1 | > 512 | > 512 | > 512 | > 512 | > 512 | > 512 | > 512
24 | C=C1C(c2ccc(F)cc2)=C(CNC(=O)c2ccc(C)cc2)C(=O)N1C1CCCC1 | 512 (≈ 1270 µM) | > 512 | > 512 | > 512 | 512 (≈ 1270 µM) | 512 (≈ 1270 µM) | > 512
25 | C=C1C(c2ccc(F)cc2)=C(CNC(=O)c2ccc(C)cc2)C(=O)N1CCCCC | 512 (≈ 1260 µM) | > 512 | > 512 | > 512 | > 512 | 512 (≈ 1260 µM) | > 512
26 | C=C1C(c2ccc(F)cc2)=C(CNC(=O)c2ccc(C)cc2)C(=O)N1CCC | 512 (≈ 1350 µM) | > 512 | > 512 | > 512 | > 512 | 512 (≈ 1350 µM) | 256 (≈ 676 µM)
27 | C=C1OC(=O)C(CNC(=O)c2ccc(C)cc2)=C1c1cccc(C(F)(F)F)c1 | > 512 | > 512 | > 512 | > 512 | > 512 | > 512 | > 512
28 | C=C1OC(=O)C(CNC(=O)c2ccccc2Cl)=C1c1ccc(F)cc1 | > 512 | > 512 | > 512 | > 512 | > 512 | > 512 | > 512
29 | C=C1OC(=O)C(CNC(=O)c2ccc(C)cc2)=C1c1ccccc1Cl | > 512 | > 512 | > 512 | > 512 | > 512 | > 512 | > 512
30 | C=C1OC(=O)C(CNC(=O)c2ccc(C)cc2)=C1c1cccc(F)c1 | > 512 | > 512 | > 512 | > 512 | > 512 | > 512 | > 512
